Data set [1] in a line: Surface properties (BET specific surface area, porosity, rugosity). The class given is physicochemical. The text has this: As used herein, specific surface area (SSA) refers to the SSA calculated from gas adsorption data according to a theory developed by Brunauer, Emmett, and Teller (J Amer Chem Soc 1938, 60:309), generally referred to as the BET method.
As used herein, particle porosity refers to the total pore volume in %, calculated from nitrogen gas absorption data. In nitrogen adsorption, the pores are filled (and emptied) according to the Kelvin capillary condensation equation. As the partial pressure of nitrogen increases, condensation of the gas will begin in the smaller pores and progressively fill larger and larger pores until bulk condensation occurs. Using this technique, nitrogen is first condensed in the pores by setting the partial pressure of nitrogen to a value near saturation. Then, the nitrogen is gradually desorbed in a stepwise fashion by reducing its vapor pressure. The pore size distribution is calculated by analyzing the nitrogen desorption isotherm using the Kelvin equation to determine the amount of condensed nitrogen in the pores (assuming a cylindrical pore geometry), wherein the adsorptive loss at each step represents the core volume of pores emptied during that step. The calculation is automated, and follows the algorithm proposed by Barrett et al (Barrett E P, Joyner L G, Halenda P P: The determination of pore volume and area distributions in porous substances I. computations from nitrogen isotherms. J Amer Chem Soc 1951, 73:373-380). This approach holds for pore diameters as small as about 2 nm, i.e., down to the […] region.
Rugosity (Sv) is a measure of the surface roughness of an engineered powder. For the purposes of this invention, rugosity is calculated from the specific surface area obtained from BET measurements, the true density obtained by helium pycnometry, and the surface/volume ratio of the particle obtained by laser diffraction (Sympatec), viz:
Significant increases in specific surface area, porosity, and rugosity Sv are observed for the phospholipid-coated particles relative to micronized drug. […]

Data set [2] can be described thus: Powder dispersibility, laser diffraction with varied RODOS dispersing pressure. The following applies: dispersing pressure 0.2 bar. In kind it is physicochemical.
Procedure: As used herein, the relative dispersibility of spray-dried powders is determined with the Sympatec (laser diffraction) by varying the dispersing pressure of the RODOS dispersion unit, from about 0.2 bar to 4.0 bar. As used herein, the dispersibility index, δ (delta), is defined as the ratio of the x50 measured at a dispersing pressure of 0.2 bar to that at 4.0 bar.
The relative dispersibility of powder formulations can be studied with the laser diffraction technique by varying the dispersing pressure in the RODOS disperser. […] The ratio of the median particle sizes measured at low and high dispersing pressures is a measure of the dispersibility of the powder.
The conditions of data set [3]: background; cited from earlier work.

In the case of `O=C(O)c1cn(C2CC2)c2cc(N3CCNCC3)c(F)cc2c1=O` [Lot BXA1GE7], the “Rugosity Sv” value in data set [1] (API shape factor = 1.27) was found to be 1.1. For the same compound, the “Specific Surface Area” value in data set [1] (BET) turned out to be 4.4 m^2/g. Moreover, in data set [1] (laser diffraction), the “Sympatec Sv” value was found to be 4.91 m^2/cm^3.

Compound `O=C(O)c1cn(C2CC2)c2cc(N3CCNCC3)c(F)cc2c1=O` [ciprofloxacin betaine] showed a x50 in data set [2] of 3.5 μm. On to `O=C(O)c1cn(C2CC2)c2cc(N3CCNCC3)c(F)cc2c1=O` [ciprofloxacin], for which the pK1 in data set [3] is recorded as 6.0.
